Common to all, as to details: compound at 10 μM
For test [1], the target named is T1, Human Melanocortin (MC4) (Homo sapiens, UniProt P32245).
T1 construct: purchased Perkin Elmer Biosignal
Description: Radioligand binding, human melanocortin MC4 membranes, FlashPlate, [125I]-NDP-αMSH. Put shortly:
(§1)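 Cloned human receptor membranes were coated onto FlashPlate wells and incubated with radioligand and compound (added from a 0.5 mM DMSO daughter plate) for 1 hour at room temperature in the dark. Scintillation counting gave percent inhibition, with DMSO defining total and reference ligand defining non-specific binding.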

Test [2] concerns the target T2, Human neurokinin (NK1) (Homo sapiens, UniProt P25103).
T2 construct: purchased Perkin Elmer Biosignal
In words: Radioligand binding, human neurokinin NK1 membranes, filtration, [125I]-Substance P. In a few lines: (§2)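 Percent inhibition of radioligand binding measured on recombinant human membranes: NK1 with [125I]-Substance P, KOP with [3H]-Diprenorphine. Incubation 1 h at room temperature, then harvest onto 0.3% PEI-soaked filters, cold Tris-HCl pH 7.4 washes and scintillation counting; non-specific binding from reference ligand wells.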

Test [3] concerns the target T3, Human melanocortin (MC5) (Homo sapiens, UniProt P33032).
T3 construct: purchased Perkin Elmer Biosignal
In words: Radioligand binding, human melanocortin MC5 membranes, FlashPlate, [125I]-NDP-αMSH. Put shortly: as §1

Test [4] concerns the target T4, Human κ-Opioid (KOP) (Homo sapiens, UniProt P41145).
T4 construct: purchased Perkin Elmer Biosignal
Description: Radioligand binding, human κ-opioid (KOP) membranes, filtration, [3H]-Diprenorphine. Put shortly:
as §2

The target in test [5] is T5, Human melanin-concentrating hormone (MCH1) (Homo sapiens, UniProt Q99705).
T5 construct: purchased Perkin Elmer Biosignal
T5 sequence (Q99705 whole entry): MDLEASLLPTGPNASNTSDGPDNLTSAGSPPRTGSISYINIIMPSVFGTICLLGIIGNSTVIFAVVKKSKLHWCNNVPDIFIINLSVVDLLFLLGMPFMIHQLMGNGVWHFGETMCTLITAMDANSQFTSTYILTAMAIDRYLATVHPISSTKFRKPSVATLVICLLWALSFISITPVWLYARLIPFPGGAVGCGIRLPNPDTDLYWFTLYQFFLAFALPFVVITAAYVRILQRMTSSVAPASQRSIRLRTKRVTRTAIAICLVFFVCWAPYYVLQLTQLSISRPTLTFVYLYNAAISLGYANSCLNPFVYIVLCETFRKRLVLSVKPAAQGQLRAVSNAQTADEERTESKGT
In words: Radioligand binding, human melanin-concentrating hormone MCH1 membranes, FlashPlate, [125I]-S36057. Put shortly:
as §1

Test [6] addresses T6, Human opioid (ORL1) (Homo sapiens, UniProt P41146).
T6 construct: purchased Perkin Elmer Biosignal
In words: Radioligand binding, human opioid ORL1 membranes, FlashPlate, [125I]-Nociceptin. Put shortly: as §1

In test [7] the target is T7, Mouse urotensin (mUR2) (Mus musculus, UniProt Q8VIH9).
T7 construct: purchased Perkin Elmer Biosignal
T7 sequence (Q8VIH9 1-385): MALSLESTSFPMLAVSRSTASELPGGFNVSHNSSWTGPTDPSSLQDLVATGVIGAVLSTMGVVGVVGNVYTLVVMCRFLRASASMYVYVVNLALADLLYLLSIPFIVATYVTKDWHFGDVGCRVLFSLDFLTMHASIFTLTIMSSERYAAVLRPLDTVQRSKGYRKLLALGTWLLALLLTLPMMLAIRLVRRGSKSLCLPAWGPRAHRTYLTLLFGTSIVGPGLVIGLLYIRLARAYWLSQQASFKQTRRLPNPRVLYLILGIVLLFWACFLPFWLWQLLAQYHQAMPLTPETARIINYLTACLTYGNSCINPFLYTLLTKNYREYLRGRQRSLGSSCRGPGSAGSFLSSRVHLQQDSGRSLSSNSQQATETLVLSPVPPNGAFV
In words: Radioligand binding, mouse urotensin mUR2 membranes, FlashPlate, [125I]-Urotensin II. In a few lines:
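Cloned mouse urotensin (mUR2) receptor membranes from Perkin Elmer Biosignal were immobilized in FlashPlate microplates using a proprietary coating. Each well got 19.5 μl buffer, then 0.5 μl of DMSO, reference ligand, or compound. Adding 5 μl of [125I]-Urotensin II, diluted to 5× final concentration in binding buffer, started binding. Plates were sealed with TopSeal-A and incubated 1 hour at room temperature in the dark. Wells were counted for 30 seconds each on a TopCount after a 60-second delay, and percentage inhibition was calculated.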

For test [8], the target named is T8, Human μ-opioid (MOP) (Homo sapiens, UniProt P35372).
T8 construct: purchased Perkin Elmer Biosignal
T8 sequence (P35372 whole entry): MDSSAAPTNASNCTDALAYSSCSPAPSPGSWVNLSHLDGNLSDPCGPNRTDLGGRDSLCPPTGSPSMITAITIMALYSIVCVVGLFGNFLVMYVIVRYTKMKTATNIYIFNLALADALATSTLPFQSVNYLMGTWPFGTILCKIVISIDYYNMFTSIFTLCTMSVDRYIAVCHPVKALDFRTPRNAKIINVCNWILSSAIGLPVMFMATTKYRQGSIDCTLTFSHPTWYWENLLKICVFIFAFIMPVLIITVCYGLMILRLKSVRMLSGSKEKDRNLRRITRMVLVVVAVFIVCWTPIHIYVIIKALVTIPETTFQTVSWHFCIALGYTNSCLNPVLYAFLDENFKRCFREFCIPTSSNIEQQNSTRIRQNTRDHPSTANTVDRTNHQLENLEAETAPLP
In words: Radioligand binding, human μ-opioid (MOP) membranes, FlashPlate, [3H]-Naloxone. In a few lines:
as §1

The target in test [9] is T9, Human Melanocortin (MC3) (Homo sapiens, UniProt P41968).
T9 construct: purchased Perkin Elmer Biosignal
T9 sequence (P41968 whole entry): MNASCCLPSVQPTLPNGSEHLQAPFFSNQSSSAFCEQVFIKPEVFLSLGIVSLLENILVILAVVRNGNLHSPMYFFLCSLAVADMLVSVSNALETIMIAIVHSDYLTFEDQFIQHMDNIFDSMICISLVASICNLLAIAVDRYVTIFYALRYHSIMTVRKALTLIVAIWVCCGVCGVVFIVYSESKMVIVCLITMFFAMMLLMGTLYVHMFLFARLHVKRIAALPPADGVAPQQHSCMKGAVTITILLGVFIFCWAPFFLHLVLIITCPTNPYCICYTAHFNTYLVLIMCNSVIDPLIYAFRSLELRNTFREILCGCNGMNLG
Description: Radioligand binding, human melanocortin MC3 membranes, FlashPlate, [125I]-NDP-αMSH. Put shortly:
as §1

Test [10] deals with T10, Human neuropeptide Y (NPY-Y1) (Homo sapiens, UniProt P25929).
T10 construct: purchased Perkin Elmer Biosignal
T10 sequence (P25929 1-384): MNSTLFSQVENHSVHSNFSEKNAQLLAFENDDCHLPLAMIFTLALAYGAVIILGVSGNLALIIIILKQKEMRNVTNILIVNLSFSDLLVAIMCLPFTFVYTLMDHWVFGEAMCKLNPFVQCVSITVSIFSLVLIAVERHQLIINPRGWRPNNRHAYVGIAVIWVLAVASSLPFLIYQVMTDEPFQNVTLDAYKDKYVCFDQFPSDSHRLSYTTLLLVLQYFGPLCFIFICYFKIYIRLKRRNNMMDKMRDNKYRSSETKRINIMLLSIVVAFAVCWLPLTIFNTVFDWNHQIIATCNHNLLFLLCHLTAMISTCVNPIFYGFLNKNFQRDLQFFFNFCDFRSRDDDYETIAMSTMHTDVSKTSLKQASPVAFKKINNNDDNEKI
Description: Radioligand binding, human neuropeptide Y NPY-Y1 membranes, FlashPlate, [125I]-PYY. Put shortly: as §1

In test [11] the target is T11, Human δ-opioid (DOP) (Homo sapiens, UniProt P41143).
T11 construct: purchased Perkin Elmer Biosignal
T11 sequence (P41143 whole entry): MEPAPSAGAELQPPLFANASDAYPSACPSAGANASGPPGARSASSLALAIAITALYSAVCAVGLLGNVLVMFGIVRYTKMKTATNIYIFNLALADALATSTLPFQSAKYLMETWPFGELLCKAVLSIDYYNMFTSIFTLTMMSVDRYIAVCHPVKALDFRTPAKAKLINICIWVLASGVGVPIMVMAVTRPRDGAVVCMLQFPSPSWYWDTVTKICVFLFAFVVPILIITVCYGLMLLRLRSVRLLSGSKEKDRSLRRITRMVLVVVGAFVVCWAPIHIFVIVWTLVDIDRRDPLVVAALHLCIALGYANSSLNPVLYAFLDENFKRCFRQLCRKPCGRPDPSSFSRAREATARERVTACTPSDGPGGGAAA
Description: Radioligand binding, human δ-opioid (DOP) membranes, FlashPlate, [3H]-Bremazocine. In a few lines: as §1

T4 sequence (P41145 whole entry): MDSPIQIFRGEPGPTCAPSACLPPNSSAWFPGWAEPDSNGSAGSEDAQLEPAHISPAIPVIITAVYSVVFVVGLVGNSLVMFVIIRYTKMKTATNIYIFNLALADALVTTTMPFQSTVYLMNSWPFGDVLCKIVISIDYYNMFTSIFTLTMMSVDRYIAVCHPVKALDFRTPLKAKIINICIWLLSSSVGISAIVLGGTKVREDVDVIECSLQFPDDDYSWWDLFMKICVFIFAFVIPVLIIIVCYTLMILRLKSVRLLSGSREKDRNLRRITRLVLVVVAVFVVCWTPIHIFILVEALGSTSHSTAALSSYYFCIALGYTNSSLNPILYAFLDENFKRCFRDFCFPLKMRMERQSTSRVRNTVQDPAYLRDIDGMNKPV
T6 sequence (P41146 whole entry): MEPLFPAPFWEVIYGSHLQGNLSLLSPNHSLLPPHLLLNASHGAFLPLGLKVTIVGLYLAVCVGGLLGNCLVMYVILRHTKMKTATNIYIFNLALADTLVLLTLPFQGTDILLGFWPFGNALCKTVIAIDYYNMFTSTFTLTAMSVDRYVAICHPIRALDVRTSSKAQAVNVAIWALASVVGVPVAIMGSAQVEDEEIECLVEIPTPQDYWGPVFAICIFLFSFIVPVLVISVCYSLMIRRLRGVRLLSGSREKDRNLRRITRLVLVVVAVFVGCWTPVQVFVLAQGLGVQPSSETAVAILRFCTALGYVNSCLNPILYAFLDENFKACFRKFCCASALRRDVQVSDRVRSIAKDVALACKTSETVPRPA
T2 sequence (P25103 whole entry): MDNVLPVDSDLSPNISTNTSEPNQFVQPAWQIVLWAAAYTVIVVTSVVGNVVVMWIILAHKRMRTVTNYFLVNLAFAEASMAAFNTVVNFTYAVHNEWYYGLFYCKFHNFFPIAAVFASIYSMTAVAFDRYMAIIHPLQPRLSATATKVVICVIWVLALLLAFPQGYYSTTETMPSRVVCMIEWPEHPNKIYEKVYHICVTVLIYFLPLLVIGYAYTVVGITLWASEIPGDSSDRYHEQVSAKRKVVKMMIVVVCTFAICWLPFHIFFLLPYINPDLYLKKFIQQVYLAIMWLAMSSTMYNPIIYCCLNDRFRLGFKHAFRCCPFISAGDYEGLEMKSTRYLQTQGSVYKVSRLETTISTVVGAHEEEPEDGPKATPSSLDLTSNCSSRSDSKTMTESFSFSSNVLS
T1 sequence (P32245 whole entry): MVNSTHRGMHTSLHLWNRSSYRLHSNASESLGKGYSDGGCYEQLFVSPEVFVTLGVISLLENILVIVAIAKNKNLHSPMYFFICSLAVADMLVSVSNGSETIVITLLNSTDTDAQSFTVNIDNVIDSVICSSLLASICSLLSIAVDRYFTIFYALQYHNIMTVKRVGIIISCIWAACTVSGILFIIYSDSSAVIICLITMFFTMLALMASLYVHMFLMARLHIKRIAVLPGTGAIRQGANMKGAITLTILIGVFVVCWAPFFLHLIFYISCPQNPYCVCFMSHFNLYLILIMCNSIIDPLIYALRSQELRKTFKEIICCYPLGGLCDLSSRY
T3 sequence (P33032 whole entry): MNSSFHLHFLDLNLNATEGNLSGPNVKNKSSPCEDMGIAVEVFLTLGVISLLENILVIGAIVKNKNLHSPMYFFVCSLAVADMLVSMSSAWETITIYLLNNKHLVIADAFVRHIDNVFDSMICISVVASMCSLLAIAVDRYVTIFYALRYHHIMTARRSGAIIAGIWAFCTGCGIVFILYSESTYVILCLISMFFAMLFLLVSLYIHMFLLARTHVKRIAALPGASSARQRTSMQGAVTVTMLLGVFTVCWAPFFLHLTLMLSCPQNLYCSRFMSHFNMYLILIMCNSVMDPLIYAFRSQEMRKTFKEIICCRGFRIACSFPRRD

Take `NCCCC(=O)NC1C(OCc2ccc3ccccc3c2)OC(COCc2ccccc2)C(O)C1OCc1ccc(Cl)cc1` (single isomer, unassigned) [compound 456]: the “A4: inhibition of radioligand binding” value in [1] ([125I]-NDP-αMSH, human MC4 membranes, 10 µM) is reported as “− (“−” indicates less than 50% inhibition at 10 μM)”. For the same compound, in test [2] ([125I]-Substance P, human NK1 membranes), the “A8: inhibition of radioligand binding” value was “+ (“+” indicates greater than 50% inhibition at 10 μM)”. Also, the “A5: inhibition of radioligand binding” value in test [3] ([125I]-NDP-αMSH, human MC5 membranes, 10 µM) is reported as “+ (“+” indicates greater than 50% inhibition at 10 μM)”. The “A2: inhibition of radioligand binding” value in [4] ([3H]-Diprenorphine, human KOP membranes) was “− (“−” indicates less than 50% inhibition at 10 μM)”. Besides, in [5] ([125I]-S36057, human MCH1 membranes, 10 µM), the “A6: inhibition of radioligand binding” value is “+ (“+” indicates greater than 50% inhibition at 10 μM)”. For the same compound, in [6] ([125I]-Nociceptin, human ORL1 membranes, 10 µM), the “A10: inhibition of radioligand binding” value is listed as “− (“−” indicates less than 50% inhibition at 10 μM)”. For the same compound, the “A11: inhibition of radioligand binding” value in test [7] ([125I]-Urotensin II, mouse mUR2 membranes) is “− (“−” indicates less than 50% inhibition at 10 μM)”. The “A7: inhibition of radioligand binding” value in test [8] ([3H]-Naloxone, human MOP membranes, 10 µM) is given as “− (“−” indicates less than 50% inhibition at 10 μM)”. Also, the “A3: inhibition of radioligand binding” value in test [9] ([125I]-NDP-αMSH, human MC3 membranes) is “− (“−” indicates less than 50% inhibition at 10 μM)”. The “A9: inhibition of radioligand binding” value in test [10] ([125I]-PYY, human NPY-Y1 membranes) is recorded as “− (“−” indicates less than 50% inhibition at 10 μM)”. The “A1: inhibition of radioligand binding” value in [11] ([3H]-Bremazocine, human DOP membranes) is “− (“−” indicates less than 50% inhibition at 10 μM)”.

`COCC1OC(OCCc2ccccc2)C(NC(=O)CCCN)C(OCc2ccccc2)C1O` (centres unmarked) [compound 217]: the “A4: inhibition of radioligand binding” value in test [1] ([125I]-NDP-αMSH, FlashPlate) is “− (“−” indicates less than 50% inhibition at 10 μM)”. Further, the “A8: inhibition of radioligand binding” value in test [2] ([125I]-Substance P, filtration) is on record as “+ (“+” indicates greater than 50% inhibition at 10 μM)”. Further, the “A5: inhibition of radioligand binding” value in [3] ([125I]-NDP-αMSH, FlashPlate) was “− (“−” indicates less than 50% inhibition at 10 μM)”. In addition, the “A2: inhibition of radioligand binding” value in test [4] ([3H]-Diprenorphine, filtration) is given as “− (“−” indicates less than 50% inhibition at 10 μM)”. For the same compound, in [5] ([125I]-S36057, FlashPlate), the “A6: inhibition of radioligand binding” value is recorded as “− (“−” indicates less than 50% inhibition at 10 μM)”. In test [6] ([125I]-Nociceptin, FlashPlate), the “A10: inhibition of radioligand binding” value is recorded as “− (“−” indicates less than 50% inhibition at 10 μM)”. Moreover, in [7] ([125I]-Urotensin II, FlashPlate), the “A11: inhibition of radioligand binding” value is given as “− (“−” indicates less than 50% inhibition at 10 μM)”. In test [8] ([3H]-Naloxone, FlashPlate), the “A7: inhibition of radioligand binding” value was “− (“−” indicates less than 50% inhibition at 10 μM)”. Further, the “A3: inhibition of radioligand binding” value in test [9] ([125I]-NDP-αMSH, FlashPlate) is listed as “− (“−” indicates less than 50% inhibition at 10 μM)”. Further, in [10] ([125I]-PYY, FlashPlate), the “A9: inhibition of radioligand binding” value is recorded as “− (“−” indicates less than 50% inhibition at 10 μM)”. Also, in test [11] ([3H]-Bremazocine, FlashPlate), the “A1: inhibition of radioligand binding” value is listed as “− (“−” indicates less than 50% inhibition at 10 μM)”.

Regarding `CO[C@H]1[C@H](O)[C@@H](COCc2ccc3ccccc3c2)OC(OCc2ccc(-c3ccccc3)cc2)[C@@H]1NC(=O)CCNC(=N)N` (some centres unmarked) [compound 56], the “A4 radioligand binding inhibition” value in test [1] (human melanocortin MC4 membranes) is given as “− (“−” indicates less than 50% inhibition at 10 μM)”. In test [2] (human neurokinin NK1 membranes), the “A8 radioligand binding inhibition” value is listed as “+ (“+” indicates greater than 50% inhibition at 10 μM)”. In test [3] (human melanocortin MC5 membranes), the “A5 radioligand binding inhibition” value was “+ (“+” indicates greater than 50% inhibition at 10 μM)”. In addition, the “A2 radioligand binding inhibition” value in [4] (human κ-opioid (KOP) membranes) is recorded as “− (“−” indicates less than 50% inhibition at 10 μM)”. The “A6 radioligand binding inhibition” value in test [5] (human MCH1 membranes) was “− (“−” indicates less than 50% inhibition at 10 μM)”. In addition, the “A10 radioligand binding inhibition” value in test [6] (human ORL1 membranes) is given as “− (“−” indicates less than 50% inhibition at 10 μM)”. Further, the “A11 radioligand binding inhibition” value in test [7] (mouse urotensin mUR2 membranes) is listed as “− (“−” indicates less than 50% inhibition at 10 μM)”. The “A7 radioligand binding inhibition” value in test [8] (human μ-opioid (MOP) membranes) is recorded as “+ (“+” indicates greater than 50% inhibition at 10 μM)”. In addition, the “A3 radioligand binding inhibition” value in test [9] (human melanocortin MC3 membranes) was “− (“−” indicates less than 50% inhibition at 10 μM)”. Further, the “A9 radioligand binding inhibition” value in test [10] (human NPY-Y1 membranes) is “− (“−” indicates less than 50% inhibition at 10 μM)”. For the same compound, the “A1 radioligand binding inhibition” value in test [11] (human δ-opioid (DOP) membranes) is “− (“−” indicates less than 50% inhibition at 10 μM)”.

In the case of `NCCCC(=O)NC1C(OCc2ccc(Cl)cc2)OC(COCc2ccc3ccccc3c2)C(O)C1OCc1ccc(Cl)cc1` (single isomer, unassigned) [compound 490], in test [1] ([125I]-NDP-αMSH), the “A4: inhibition of radioligand binding, human melanocortin (MC4)” value is on record as “+ (“+” indicates greater than 50% inhibition at 10 μM)”. For the same compound, the “A8: inhibition of radioligand binding, human neurokinin (NK1)” value in [2] ([125I]-Substance P) is reported as “+ (“+” indicates greater than 50% inhibition at 10 μM)”. In addition, the “A5: inhibition of radioligand binding, human melanocortin (MC5)” value in test [3] ([125I]-NDP-αMSH) is “+ (“+” indicates greater than 50% inhibition at 10 μM)”. Also, the “A2: inhibition of radioligand binding, human κ-opioid (KOP)” value in test [4] ([3H]-Diprenorphine) was “− (“−” indicates less than 50% inhibition at 10 μM)”. For the same compound, the “A6: inhibition of radioligand binding, human melanin-concentrating hormone (MCH1)” value in test [5] ([125I]-S36057, 10 µM) is recorded as “+ (“+” indicates greater than 50% inhibition at 10 μM)”. The “A10: inhibition of radioligand binding, human opioid (ORL1)” value in [6] ([125I]-Nociceptin) is reported as “+ (“+” indicates greater than 50% inhibition at 10 μM)”. Moreover, in test [7] ([125I]-Urotensin II), the “A11: inhibition of radioligand binding, mouse urotensin (mUR2)” value is “− (“−” indicates less than 50% inhibition at 10 μM)”. The “A7: inhibition of radioligand binding, human μ-opioid (MOP)” value in test [8] ([3H]-Naloxone) is “+ (“+” indicates greater than 50% inhibition at 10 μM)”. For the same compound, the “A3: inhibition of radioligand binding, human melanocortin (MC3)” value in test [9] ([125I]-NDP-αMSH) was “+ (“+” indicates greater than 50% inhibition at 10 μM)”. For the same compound, in test [10] ([125I]-PYY), the “A9: inhibition of radioligand binding, human neuropeptide Y (NPY-Y1)” value is reported as “− (“−” indicates less than 50% inhibition at 10 μM)”. Besides, in test [11] ([3H]-Bremazocine), the “A1: inhibition of radioligand binding, human δ-opioid (DOP)” value is given as “− (“−” indicates less than 50% inhibition at 10 μM)”.

The values above are taken from patent publication US20080009418A1, “Selective Inhibitors” (Alchemia LTD., priority 2004, published 2008).
